Values joined by “and” are separate entries in the source; they are usually repeats but may differ in a detail not shown here. Identical values can stand only once. Like-named read-outs stand apart in the source and are kept apart here.
Experiments:
[1] = tested on: rat sciatic nerve; type: in vivo, Female Charles River rats
[2] = tested on: peridural space / spinal roots of dogs (digital pain, scrotal pain, weight support); type: in vivo, Mature male beagles
[3] = tested on: sheep (anal, vulv.-scrotal and digital pain); type: in vivo; settings: Compound C alone 1%
[4] = tested on: outward potassium current; settings: voltage-clamped giant axon; cited from earlier work
[5] = tested on: inward initial sodium current; settings: voltage-clamped giant axon; cited from earlier work
[6] = compound alone 0.5%, no vasoconstrictor
[7] = compound alone 1.0%, no vasoconstrictor
[8] = local anesthetic alone 0.25%, no vasoconstrictor
[9] = 5 ml, epinephrine 1:100,000, lidocaine 2%
[10] = 5 ml, epinephrine 1:100,000, lidocaine 2%, saxitoxin 4 μg/ml
[11] = local anesthetic alone: lidocaine 2.0%, dibucaine 0.125%, procaine 2.0%, no epinephrine
[12] = local anesthetic alone: lidocaine 2.0%, dibucaine 0.125%, procaine 2.0%, no epinephrine, approximate
[13] = alone: S 0.75%, T 1%, bupivicaine 0.5%, epinephrine 1:100,000, 5 ml
[14] = 1:100,000 epinephrine, procaine 1%, saxitoxin 1 μg/ml

Cc1cccc(C)c1NC(=O)C(C)N (stereo not shown) [Q, 2-Amino-2',6'-propionoxylidide]
Frequency [1, 6]: 4/6 | Duration, mean ± S.D. [1, 7]: 79 ± 19 min | Frequency [1, 7]: 5/6

CCCCOc1ccc(OCCCN2CCOCC2)cc1 [Pramoxine, pramoxine]
Anesthetic effect (in words) ([1]; Example 5, STX 2 μg/ml or pramoxine 0.25% alone): no anesthetic effect whatever was observed | Duration, mean ± S.D. [1, 8]: 0 min | Frequency [1, 8]: 0/5

Cc1cccc(C)c1NC(=O)CN(C)C [H, 2-Dimethylamino-2'-6'-acetoxylidide]
Frequency [1, 6]: 5/6 | Duration, mean ± S.D. [1, 7]: 76 ± 12 min | Frequency [1, 7]: 6/6

Cc1cccc(C)c1NC(=O)CNC1CCC1 [Compound K, 2-Cyclobutylamino-2',6'-acetoxylidide]
Frequency [1, 7]: 6/6

CCN(CC)CC(=O)Nc1c(C)cccc1C [Lidocaine, lidocaine]
Duration: mean, Weight Support [2, 9]: 137 min | Duration: range, Weight Support [2, 9]: 108 to 162 min | Duration: mean, Digital Pain [2, 10]: 127 min | Duration: mean, Scrotal Pain [2, 10]: 111 min | Duration: range, Digital Pain [2, 10]: 72 to 162 min | Duration: range, Scrotal Pain [2, 10]: 62 to 152 min | Onset: mean, Digital Pain [2, 10]: 7 min | Onset: mean, Scrotal Pain [2, 10]: 8 min | Onset: mean, Weight Support [2, 10]: 5 min | Onset: range, Digital Pain [2, 10]: 5 to 13 min | Onset: range, Scrotal Pain [2, 10]: 5 to 13 min | Onset: range, Weight Support [2, 10]: 3 to 6 min | Duration (salient points, in words) ([2]; Table III footnote): short | Frequency (salient points, in words) ([2]; Table III footnote): good | Duration of complete block, mean ± standard deviation [1, 11]: 141 ± 28 min | Frequency of complete block (C) [1, 11]: 5/5 | Onset [1, 12]: 1 min

CCCN(CC)C(CC)C(=O)Nc1c(C)cccc1C (stereo not shown) [S, 2-(N-Ethyl-n-propylamino)-2',6'-butyroxylidide]
Duration of block of Digital Pain [2, 13]: 151 (77-256) min. | Duration of block of Scrotal Pain [2, 13]: 128 (82-173) min.

CCCCOc1cc(C(=O)NCCN(CC)CC)c2ccccc2n1 [Dibucaine, dibucaine]
Duration of complete block, mean ± standard deviation [1, 11]: 170 ± 33 min | Frequency of complete block (C) [1, 11]: 5/5 | Onset [1, 12]: 4 min

CCCN(CC(=O)Nc1c(C)cccc1C)C(C)(C)CC [Compound C, 2-(N-n-Propyl-tert. amylamino)-2',6'-acetoxylidide]
Duration of block of Scrotal Pain ([2]; C alone 1%, 10 ml, epinephrine 1:100,000, 2 animals): 192 min and 251 min | Duration of block of Digital Pain [3]: 45 to 60 min | Onset time [3]: 5 to 10 min

CCCOc1ccc(C(=O)CCN2CCCCC2)cc1 [Falicain, falicain]
Duration, mean ± S.D. [1, 8]: 94 ± 21 min | Frequency [1, 8]: 5/5 | Duration, mean ± S.D. ([1]; local anesthetic alone 0.25%, no vasoconstrictor, listed as falicain): about 94 min.

CCCC(C(=O)Nc1c(C)cccc1C)N(CC)CC (stereo not shown) [T, 2-Diethylamino-2',6'-valeroxylidide]
Duration of block of Digital Pain [2, 13]: 301 (238-365) min. | Duration of block of Scrotal Pain [2, 13]: 202 (185-218) min.

COC(=O)[C@H]1[C@@H](OC(=O)c2ccccc2)C[C@@H]2CC[C@H]1N2C [cocaine]
Effect on outward potassium current (in words) [4]: reduce | Effect on inward (initial) sodium current (in words) [5]: reduce

CCC(C)(C)NCC(=O)Nc1c(C)cccc1C [L, 2-tert. Amylamino-2',6'-acetoxylidide]
Frequency [1, 6]: 6/6 | Duration, mean ± S.D. [1, 7]: 101 ± 8 min | Frequency [1, 7]: 6/6

CCCCN(C)CC(=O)Nc1c(C)cccc1C [M, 2-(N-Methyl-n-butylamino)-2',6'-acetoxylidide]
Frequency [1, 7]: 5/6

CCNCC(=O)Nc1c(C)cccc1C [J, 2-Ethylamino-2',6'-acetoxylidide]
Frequency [1, 7]: 6/6

CCCCN1CCCCC1C(=O)Nc1c(C)cccc1C (stereo not shown) [Bupivicaine, bupivacaine]
Duration of block of Digital Pain [2, 13]: 232 to 269 min | Duration of block of Scrotal Pain [2, 13]: 94 min and 139 min | Duration of block of Scrotal Pain ([2]; alone: S 0.75%, T 1%, bupivicaine 0.5%, epinephrine 1:100,000, 5 ml, listed as bupivicaine): about 94 min.

CCC(C)N(CC)CC(=O)Nc1c(C)cccc1C (stereo not shown) [Compound P, 2-(N-Ethyl-sec. butylamino)-2',6'-acetoxylidide]
Frequency (in words) ([1]; Example 5, STX 2 μg/ml in combinations): poor | Duration, mean ± S.D. [1, 6]: 45 min | Frequency [1, 6]: 2/6

CCN(CC)CCOC(=O)c1ccc(N)cc1 [Procaine, procaine]
Effect on outward potassium current (in words) [4]: reduce | Duration, mean ± standard deviation [1, 14]: 104 ± 15 min | Frequency [1, 14]: 100% | Onset [1, 14]: 2 min | Duration of complete block, mean ± standard deviation [1, 11]: 99 ± 8 min | Frequency of complete block (C) [1, 11]: 5/5 | Onset [1, 12]: 1 min | Effect on inward (initial) sodium current (in words) [5]: reduce

— patent US3957996A (priority 1973, dated 1976)
